Common to all, as to type: cell-based
Test [1] deals with MDA-MB-231 breast cancer cells. Description: MTT assay on MDA-MB-231 breast cancer cells. The following applies: 72 h, 5-80 μM, read-out: The inhibitory effect IC50 on MDA-MB-231 breast cancer cells. The procedure:
The Anti-Invasion Activities of Arene Ruthenium (II) Complexes Against MDA-MB-231 Breast Cancer Cells.
The anti-invasion activities of arene ruthenium (II) complexes against MDA-MB-231 breast cancer cells was evaluated by MTT assay. Discarding the medium of the MDA-MB-231 breast cancer cells in exponential growth phase, washing the cells twice with phosphate-buffered saline (PBS), dissociating into single cells by digesting with 1 mL trypsin, counting the cells. Adding fresh medium to dilute cell population to 1.5×10^4 cells/mL, inoculating into 96-well tissue culture plates (3×10^3 cells per well) with 200 μL/well in 6 wells of each group, repeating twice, and then culturing at 37° C. in 5% CO2 saturated humidity incubator for 16 h. After adherent cells are apparent, removing the supernatant carefully and adding DMEM media. Meanwhile, the cells were incubated with different concentrations of arene ruthenium (II) complexes with a final concentration of 5, 10, 20, 40 and 80 μM respectively and maintain the total volume at 200 μL/well. Thereafter, the cells were cultured for 72 h. At the end of incubation, 20 μL/well of MTT solution (5 mg/mL) was added and incubated for 4 h. Removing the supernatant carefully and replaced with 150 μL/well of DMSO and oscillated for 10 mins to ensure complete dissolution of the formazan crystallization. The absorbance values were measured at 490 nm using a microplate reader. Cell viability was calculated according to the following formula: Cell viability (%)=A490 nm (cells in experimental group)/A490 nm (cells in control group)×100%
According to the values of cell viability, calculating the inhibitory activities (IC50) of the target complex against MDA-MB-231 cells.
In general terms: Formazan colour is commonly taken as a measure of viable cells.

Test [2] deals with rat glioma C6 cancer cells. The test is described as follows: MTT assay on rat glioma C6 cells. The following applies: 72 h, 5-80 μM, read-out: The inhibitory effect IC50 on rat glioma C6 cancer cells. The method, then: The Antiproliferative Activities of Arene Ruthenium (II) Complexes Against Rat Glioma C6 Cancer Cells.
(§1) The antiproliferative effects of arene ruthenium (II) complex against rat glioma C6 cells were evaluated by MTT assay. Discarding the medium of the rat glioma C6 cells in exponential growth phase, washing the cells twice with phosphate-buffered saline (PBS), dissociating into single cells by digesting with 1 mL trypsin, counting the cells. Adding fresh medium to dilute cell population to 1.5×10^4 cells/mL, inoculating into 96-well tissue culture plates (3×10^3 cells per well) with 200 μL/well in 6 wells of each group, repeating twice, and then culturing at 37° C. in 5% CO2 saturated humidity incubator for 16 h. After adherent cells are apparent, removing the supernatant carefully and adding DMEM media. Meanwhile, the cells were incubated with different concentrations of arene ruthenium (II) complexes with a final concentration of 5, 10, 20, 40 and 80 μM respectively, and maintain the total volume at 200 μL/well. Thereafter, the cells were cultured for 72 h. At the end of incubation, 20 μL/well of MTT solution (5 mg/mL) was added and incubated for 4 h. Removing the supernatant carefully and replaced with 150 μL/well of DMSO and oscillated for 10 min to ensure complete dissolution of the formazan crystallization. The absorbance values were measured at 490 nm using a microplate reader. Cell viability was calculated according to the following formula: Cell viability (%)=A490 nm (cells in experimental group)/A490 nm (cells in control group)×100%
According to the values of cell viability, calculating the inhibitory activities (IC50) of the target complex against rat glioma C6 cells.

In test [3] the test system is human esophageal carcinoma EC-1 cells. The test is described as follows: MTT assay on human esophageal carcinoma EC-1 cells. The following applies: 72 h, 5-80 μM, read-out: The inhibitory effect IC50 on human esophageal carcinoma EC-1 cells. The method, then:
The Antiproliferative Activities of Arene Ruthenium (II) Complexes Against Human Esophageal Carcinoma EC-1 Cells.
as §1, with “complex against human esophageal carcinoma EC-1 cells were” for “complex against rat glioma C6 cells were”, “medium of human esophageal carcinoma EC-1 cells in” for “medium of the rat glioma C6 cells in”, “with 200 µL/well in 6” for “with 200 μL/well in 6”, “80 μM respectively and maintain” for “80 μM respectively, and maintain”, “and incubated at 37° C. for 4” for “and incubated for 4”
According to the values of cell viability, calculating the inhibitory activities (IC50) of the target complex against human esophageal carcinoma EC-1 cells.

For test [4], the system named is MDA-MB-231 cells. The test is described as follows: Cell cycle analysis by flow cytometry (PI staining). Particulars: FIG. 75. The method, then:
After incubating with arene ruthenium (II) complex RAP07, the cell cycle arrest of MDA-MB-231 cells was analyzed with an Epics XL-MCL flow cytometer. The general method is: Trypsinizing the cells with trypsin, washing the cells with phosphate-buffered saline (PBS), and fixing the cells with 70% ethanol overnight at −20° C. Washing the fixed cells with phosphate-buffered saline (PBS) and staining with propidium iodide (PI) for 4 hours in the dark. Finally, the cell cycle arrest was analyzed using an Epics XL-MCL flow cytometer, cell cycle distribution was analyzed using MultiCycle software (Phoenix Flow Systems, San Diego, Calif.). The number of apoptotic cells with sub-diploid DNA were determined by measuring the […] in the cell cycle, every 10000 cells of each sample were recorded.

The IC50 is the concentration that gives 50% inhibition. In the case of [(η^6-p-cymene)Ru(p-BrPIP)Cl]Cl [RAP07], the results for the IC50 in test [1], in test [2] and in test [3] were 8.33 ± 0.6 µM, 5.6 ± 0.2 µM and 18.1 ± 1.7 µM, respectively. Also, the “Cell cycle arrest of MDA-MB-231 cells” value in test [4] is on record as “Induces the S-Phase Arrest”.
